Measurements: patent publication US7173063B1, “Topoisomerase poisons for the treatment of proliferative disorders” (Fred Hutchinson Cancer Research Center, priority 2000, dated 2007)
Like-named read-outs stand apart in the source and are kept apart here.

Key:
Format in all cases: cell-based
[1] = system: DSB repair defective rad50 and rad52 strains of Saccharomyces cerevisiae; details: for toxicity in wild-type strains: highest concentration used
Text: (§1) The strains are derived from the A364a genetic background, with the exception of BY4705, which is derived from the S288C background. Gene disruptions were generated by PCR fragment directed replacement (Baudin, et al., Nucleic Acids Research 21: 3329–30 (1993), Guldener, et al., Nucleic Acids Research 24: 2519–24 (1996)). Yeast overexpressing topoisomerase II was constructed by a PCR fragment directed promoter replacement of the topoisomerase II promoter with the yeast GPD promoter flanked upstream by the URA3 marker. All strains (except BY4705) bear the pleitropic drug sensitizing mutations erg6, pdr1, and pdr3 (Balzi, et al., Journal of Bioenergetics & Biomembranes 27: 71–6 (1995), Delaveau, et al, Molecular & General Genetics 244: 501–11 (1994), Gaber, et al., Molecular & Cellular Biology 9: 3447–56 (1989), Saunders, et al., Canadian Journal of Genetics & Cytology, 24: 493–503 (1982). Subik, et al, Current Genetics 10: 665–70 (1986)). The haploid yeast strain BY4705 (Brachmann, et al., Yeast 14: 115–32 (1998)) was used in the experiments described in FIG. 5. Plasmids expressing yeast or human topoisomerase I genes under the GAL promoter (Knab, et al., Journal of Biological Chemistry 268: 22322–30 (1993). Knab, et al., Journal of Biological Chemistry 270: 6141–8 (1995)) were transformed into BY4705 using standard procedures.
(§2) Yeast toxicity assays were performed essentially as follows: Exponentially growing cultures of the appropriate strains were diluted in synthetic complete media to a concentration of 7.4×10^4 cells/mL, and aliquots (135 μL) were transferred to each well of clear flat-bottomed 96 well plates. Compounds were added in duplicate or triplicate as 15 μL of the appropriate dilution in 5% DMSO. A 15 μL portion of 5% DMSO was added to control wells. […] Cell growth (OD660) in treated wells was plotted as a percentage of the growth in at least four averaged solvent control wells for the same strain. Camptothecin sodium salt (camptothecin Na) was the agent used in all yeast assays as standard.

Topo I = target: T1, Topo I (Saccharomyces cerevisiae, UniProt P04786); experiment: Yeast toxicity in strains with or without Topo I (rad50 vs rad50 top1); details: rad50 top1 vs rad50 strain
T1 construct: yeast strains that are DSB repair defective, with (rad50) or without Topo I (rad50, top1), and a wild type control (wt); endogenous in cells; host or cells: S. cerevisiae A364a background, rad50 (erg6 pdr1 pdr3), compared with rad50 top1
T1 sequence (P04786 1-769): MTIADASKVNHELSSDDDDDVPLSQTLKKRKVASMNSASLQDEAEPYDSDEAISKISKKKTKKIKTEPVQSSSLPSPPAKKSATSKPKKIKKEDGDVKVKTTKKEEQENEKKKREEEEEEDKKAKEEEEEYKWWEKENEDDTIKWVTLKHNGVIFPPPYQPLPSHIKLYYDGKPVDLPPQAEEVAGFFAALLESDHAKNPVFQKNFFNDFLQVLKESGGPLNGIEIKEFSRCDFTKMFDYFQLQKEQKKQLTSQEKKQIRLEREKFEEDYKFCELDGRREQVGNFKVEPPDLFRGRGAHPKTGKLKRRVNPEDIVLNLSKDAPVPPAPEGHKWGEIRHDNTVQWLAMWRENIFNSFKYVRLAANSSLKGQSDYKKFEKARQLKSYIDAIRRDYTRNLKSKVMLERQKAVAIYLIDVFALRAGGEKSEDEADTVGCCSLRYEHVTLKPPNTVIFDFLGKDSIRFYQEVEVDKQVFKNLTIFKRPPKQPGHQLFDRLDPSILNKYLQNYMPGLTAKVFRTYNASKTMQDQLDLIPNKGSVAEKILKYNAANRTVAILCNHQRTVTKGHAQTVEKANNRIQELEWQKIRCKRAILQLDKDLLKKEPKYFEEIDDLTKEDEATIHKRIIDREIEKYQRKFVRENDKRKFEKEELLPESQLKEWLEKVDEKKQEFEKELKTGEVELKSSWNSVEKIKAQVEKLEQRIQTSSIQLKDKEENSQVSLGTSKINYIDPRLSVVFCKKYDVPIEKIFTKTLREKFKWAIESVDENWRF
Text: as §1
Yeast toxicity assays were performed essentially as follows: Exponentially growing cultures of the appropriate strains were diluted in synthetic complete media to a concentration of 7.4×10^4 cells/mL, and aliquots (135 μL) were transferred to each well of clear flat-bottomed 96 well plates. Compounds were added in duplicate or triplicate as 15 μL of the appropriate dilution in 5% DMSO. A 15 μL portion of 5% DMSO was added to control wells. Assay plates were incubated at 30° C. for approximately seven generations growth in solvent control wells (as monitored by OD660, typically 21–24 hours), then the OD660 of the cultures was measured in a microplate reader (Bio-Tek). […]

yeast Topo I = target: T2, yeast Topo I (Saccharomyces cerevisiae, UniProt P04786); experiment: Toxicity in yeast overexpressing yeast Topo I (yTOP1) or ytop1-vac mutant; details: GAL promoter, galactose-induced, vs vector
T2 construct: expressed in transfected cells; host or cells: S. cerevisiae BY4705 (S288C background), plasmid pyTOP1 under the GAL promoter, vector pRS416
T2 sequence (P04786 1-769): T1 sequence (P04786 1-769)
Text: as §1, §2
In this regard, the sensitivity of yeast strains overexpressing either human or yeast topoisomerase I genes (hTOP1 or yTOP1, respectively) under the control of the inducible GAL promoter (see, for example, Knab, et al., Journal of Biological Chemistry 268: 22322–30 (1993); and Knab, et al., Journal of Biological Chemistry 270: 6141–8 (1995)) were used. Additionally, the sensitivity of yeast overexpressing the Topo I-VAC mutant enzyme, containing two amino acid substitutions (htop1-vac and ytop1-vac) that render topoisomerase I insensitive to the action of camptothecin were also examined (see, for example, Knab, et al., Journal of Biological Chemistry 268: 22322–30 (1993); and Knab, et al., Journal of Biological Chemistry 270: 6141–8 (1995)).

[2] = relative growth (OD660) vs solvent control

| SMILES | toxicity in wild-type strains [1] | profile of selective toxicity: toxic to rad50 and rad52 strains, not toxic in rad14 or rad18 strains [1, 2] | effect of deletion of the TOP1 gene on toxicity (Topo I) | effect of yTOP1 overexpression on toxicity (yeast Topo I) | influence of sensitizing mutations erg6 pdr1 and pdr3 on yeast sensitivity [1] | profile of selective toxicity: toxic to rad50 and rad52 strains, not toxic in rad14 or rad18 strains [1] |
| --- | --- | --- | --- | --- | --- | --- |
| O=c1c(Cl)c(Cl)cnn1CCCl [compound IIa] | neither compounds Ia or IIa produce toxicity | fit the profile for selective toxicity | greatly reduced | accentuates the toxicity |  |  |
| O=C(CCl)Nc1ccc(C(=O)N/N=C/c2ccc(Cl)cc2)cc1 [compound Ia] | neither compounds Ia or IIa produce toxicity | fit the profile for selective toxicity | greatly reduced | Little or no accentuation | strongly influenced |  |
| CC(=O)[C@]1(O)Cc2c(O)c3c(c(O)c2[C@@H](O[C@H]2C[C@H](N)[C@H](O)[C@H](C)O2)C1)C(=O)c1ccccc1C3=O [idarubicin, reference compound] |  |  | little effect |  |  | Agents with this profile include |
